This experiment is described as follows: Inhibition of human TREX1 exonuclease activity using labeled DNA oligonucleotide as substrate incubated for 30 mins and measured after 45 mins by fluorescence assay.
Turning to `N[C@@H]1C[C@H]2C(=O)N([C@H](CCC(=O)O)C(=O)NCc3cc(Cl)c(Cl)cc3F)CCC(CCc3ccccc3)N2C1` (stereo not given in full), the IC50 is less than 1 µM. The value for `CCOC(=O)CC[C@H](C(=O)NCc1ccc(Cl)c(Cl)c1F)N1CCC(CCc2ccccc2)N2C[C@H](N)C[C@H]2C1=O` (stereo not given in full) was less than 1 µM; that for `CC(=O)NCC[C@H](C(=O)NCc1ccc(Cl)c(Cl)c1)N1CCC(CCc2ccccc2)N2C[C@H](N)C[C@H]2C1=O` (stereo not given in full) was less than 1 µM; that for `CCOC(=O)CC[C@H](C(=O)NCc1cc(Cl)c(Cl)cc1F)N1CCC(CCc2ccccc2)N2C[C@H](N)C[C@H]2C1=O` (stereo not given in full) was less than 1 µM. The value for `N[C@@H]1C[C@H]2C(=O)N([C@H](CCC(=O)O)C(=O)NCc3ccc(Cl)c(Cl)c3)CCC(COc3cccc(F)c3)N2C1` (stereo not given in full) was less than 1 µM. The value for `N[C@@H]1C[C@H]2C(=O)N([C@H](CS(=O)(=O)c3ccccc3O)C(=O)NCc3ccc(Cl)c(Cl)c3)CCC(CCc3ccccc3)N2C1` (stereo not given in full) was less than 1 µM. `Cc1ccc(CNC(=O)[C@@H](CC(C)C)N2CCC(CCc3ccccc3)N3C[C@H](N)C[C@H]3C2=O)cc1Cl` (stereo not given in full) returned an IC50 of less than 1 µM. For `N#CC[C@H](C(=O)N1CCc2cc(Cl)c(Cl)cc2C1)N1CCC(CCc2ccccc2)N2C[C@H](N)C[C@H]2C1=O` (stereo not given in full) the value was “in the range around 1 µM”; for `N[C@@H]1C[C@H]2C(=O)N([C@@H](CCC(=O)O)C(=O)NCc3ccc(Cl)c(Cl)c3)CCC(CCc3ccccc3)N2C1` (stereo not given in full), less than 1 µM; for `CNC(=O)CC[C@H](C(=O)NCc1ccc(Cl)c(Cl)c1)N1CCC(CCc2ccccc2)N2C[C@H](N)C[C@H]2C1=O` (stereo not given in full), less than 1 µM. The value for `COC(=O)CC[C@H](C(=O)NCc1ccc(Cl)c(Cl)c1)N1CCC(COc2ccc(F)cc2)N2C[C@H](N)C[C@H]2C1=O` (mixture of isomers) was less than 1 µM; that for `N[C@@H]1C[C@H]2C(=O)N([C@@H]3CCCN(S(=O)(=O)c4ccc(Cl)c(Cl)c4)C3)CCC(CCc3ccccc3)N2C1` (stereo not given in full) was less than 1 µM.

Regarding `N#CCC[C@H](C(=O)NCc1ccc(Cl)c(Cl)c1F)N1CCC(CCc2ccccc2)N2C[C@H](N)C[C@H]2C1=O` (stereo not given in full), the IC50 is less than 1 µM. For `CCOC(=O)CC[C@H](C(=O)NCc1ccc(Cl)c(Cl)c1)N1CCC(CCc2ccccc2)N2C[C@H](NC(=O)OCC)C[C@H]2C1=O` (stereo not given in full), the IC50 entry is “in the range around 10 µM”.

As for `N[C@@H]1C[C@H]2C(=O)N([C@H](CCC(=O)O)C(=O)NCc3ccc(Cl)c(Cl)c3)CCC(COc3cnccn3)N2C1` (stereo not given in full), the IC50 result is “in the range around 1 µM”.

`N#CCC[C@H](C(=O)NCc1ccc(Cl)c(Cl)[n+]1[O-])N1CCC(CCc2ccccc2)N2C[C@H](N)C[C@H]2C1=O` (stereo not given in full) returned an IC50 of less than 1 µM. For `N[C@@H]1C[C@H]2C(=O)N([C@H](CCC(=O)O)C(=O)NCc3ccc(Cl)c(Cl)c3)CCC(CCOc3ccccc3)N2C1` (stereo not given in full) the value was “in the range around 1 µM”; for `N[C@@H]1C[C@H]2C(=O)N([C@H](CCNC(=O)C3CC3)C(=O)NCc3ccc(Cl)c(Cl)c3)CCC(CCc3ccccc3)N2C1` (stereo not given in full), less than 1 µM; for `N#CCC[C@H](C(=O)NCc1ccc(Cl)c(Cl)c1)N1CCC(COc2ccc(F)cc2)N2C[C@H](N)C[C@H]2C1=O` (stereo not given in full), less than 1 µM.

The molecule `N[C@@H]1C[C@H]2C(=O)N([C@H](CCC(=O)O)C(=O)NCc3ccc(Cl)c(Cl)n3)CCC(CCc3ccccc3)N2C1` (stereo not given in full) returned an IC50 of less than 1 µM. For `N#CC[C@H](C(=O)N1CCOC[C@@H]1c1ccccc1)N1CCC(CCc2ccccc2)N2C[C@H](N)C[C@H]2C1=O` (stereo not given in full) the value was “in the range around 10 µM”.

As to `CC(C)C[C@H](C(=O)NCc1ccc(Cl)c(Cl)c1)N1CCC(CS(=O)(=O)c2ccccc2)N2C[C@H](N)C[C@H]2C1=O` (stereo not given in full), the IC50 result is “in the range around 1 µM”. For the molecule `CCOC(=O)CC[C@H](C(=O)NCc1cc(Cl)c(Cl)cn1)N1CCC(CCc2ccccc2)N2C[C@H](N)C[C@H]2C1=O` (stereo not given in full), the IC50 was less than 1 µM. For `CC(C)C[C@H](CNC(=O)c1ccc(Cl)c(Cl)c1)N1CCC(CCc2ccccc2)N2C[C@H](N)C[C@H]2C1=O` (stereo not given in full) the value was “in the range around 1 µM”; for `N[C@@H]1C[C@H]2C(=O)N([C@H]3CCCN(Cc4ccc(Cl)c(Cl)c4)C3=O)CCC(CCc3ccccc3)N2C1` (stereo not given in full), less than 1 µM; for `CC(C)Oc1c(CNC(=O)[C@@H](CCc2nnn[nH]2)N2CCC(CCc3ccccc3)N3C[C@H](N)C[C@H]3C2=O)ccc(Cl)c1Cl` (stereo not given in full), less than 1 µM.

`NC(=O)CC[C@H](C(=O)N1Cc2cc(Cl)c(Cl)cc2C1)N1CCC(CCc2ccccc2)N2C[C@H](N)C[C@H]2C1=O` (stereo not given in full): the IC50 entry was “in the range around 10 µM”. For `CCOC(=O)CC[C@H](C(=O)NCc1ccc(Cl)c(Cl)n1)N1CCC(CCc2ccccc2)N2C[C@H](N)C[C@H]2C1=O` (stereo not given in full) the value was less than 1 µM; for `N[C@@H]1C[C@H]2C(=O)N([C@H](CCC(=O)O)C(=O)N3CCCC[C@H]3c3ccc(Cl)c(Cl)c3)CCC(CCc3ccccc3)N2C1` (stereo not given in full), less than 1 µM. For `N[C@@H]1C[C@H]2C(=O)N([C@H](CCC(=O)O)C(=O)NCc3ccc(Cl)c(Cl)c3)CCC(COc3ccccc3Cl)N2C1` (stereo not given in full) the value was less than 1 µM; for `CCOc1c(CNC(=O)[C@@H](CCC(=O)O)N2CCC(CCc3ccccc3)N3C[C@H](N)C[C@H]3C2=O)ccc(Cl)c1Cl` (stereo not given in full), less than 1 µM. For `CC(C)Oc1c(CNC(=O)[C@@H](CCC(=O)O)N2CCC(CCc3ccccc3)N3C[C@H](N)C[C@H]3C2=O)ccc(Cl)c1Cl` (stereo not given in full) the value was less than 1 µM; for `CC(C)OC(=O)CC[C@H](C(=O)NCc1ccc(Cl)c(Cl)c1)N1CCC(CCc2ccccc2)N2C[C@H](N)C[C@H]2C1=O` (stereo not given in full), less than 1 µM; for `N[C@@H]1C[C@H]2C(=O)N([C@@H]3CCCN(S(=O)(=O)c4ccccc4)C3)CCC(CCc3ccccc3)N2C1` (stereo not given in full), “in the range around 10 µM”. `CCOC(=O)CC[C@H](C(=O)N1CCC[C@H]1c1ccc(Cl)c(Cl)c1)N1CCC(CCc2ccccc2)N2C[C@H](N)C[C@H]2C1=O` (mixture of isomers) registered an IC50 of less than 1 µM.

As to `CCN(CC)C(=O)COC(=O)CC[C@H](C(=O)NCc1ccc(Cl)c(Cl)c1)N1CCC(CCc2ccccc2)N2C[C@H](N)C[C@H]2C1=O` (stereo not given in full), the IC50 is less than 1 µM. The molecule `N[C@@H]1C[C@H]2C(=O)N([C@H](CCC(=O)O)C(=O)NCc3ccc(Cl)c(Cl)c3)CCC(COc3cccc(Cl)c3)N2C1` (stereo not given in full) displayed a half-maximal inhibitory concentration (IC50) of less than 1 µM. Take `NC(=O)C[C@H](C(=O)NCc1ccc(Cl)c(Cl)n1)N1CCC(CCc2ccccc2)N2C[C@H](N)C[C@H]2C1=O` (stereo not given in full): the IC50 was less than 1 µM. For `CCOC(=O)CC[C@H](C(=O)N1CCCC[C@H]1c1ccc(Cl)c(Cl)c1)N1CCC(CCc2ccccc2)N2C[C@H](N)C[C@H]2C1=O` (stereo not given in full), the IC50 was less than 1 µM.

As for `N[C@@H]1C[C@H]2C(=O)N([C@H](CCNS(=O)(=O)C(F)(F)F)C(=O)NCc3ccc(Cl)c(Cl)c3)CCC(CCc3ccccc3)N2C1` (stereo not given in full), the IC50 is less than 1 µM. For `CC(C)C[C@H](CNS(=O)(=O)c1ccc(Cl)c(Cl)c1)N1CCC(CCc2ccccc2)N2C[C@H](N)C[C@H]2C1=O` (stereo not given in full) the value was less than 1 µM; for `N[C@@H]1C[C@H]2C(=O)N([C@H](CCC(=O)NO)C(=O)NCc3ccc(Cl)c(Cl)c3)CCC(CCc3ccccc3)N2C1` (stereo not given in full), less than 1 µM. As for `Cc1nnc(CC[C@H](C(=O)NCc2ccc(Cl)c(Cl)c2F)N2CCC(CCc3ccccc3)N3C[C@H](N)C[C@H]3C2=O)[nH]1` (stereo not given in full), the IC50 was less than 1 µM. The value for `CN(Cc1ccc(Cl)c(Cl)c1)C(=O)[C@@H](CC#N)N1CCC(CCc2ccccc2)N2C[C@H](N)C[C@H]2C1=O` (stereo not given in full) was less than 1 µM; that for `N[C@@H]1C[C@H]2C(=O)N([C@H](CCNS(=O)(=O)C3CC3)C(=O)NCc3ccc(Cl)c(Cl)c3)CCC(CCc3ccccc3)N2C1` (stereo not given in full) was less than 1 µM; that for `N[C@@H]1C[C@H]2C(=O)N([C@H](CSc3ccccc3O)C(=O)NCc3ccc(Cl)c(Cl)c3)CCC(CCc3ccccc3)N2C1` (stereo not given in full) was less than 1 µM. For `N[C@@H]1C[C@H]2C(=O)N(c3cccn(Cc4ccc(Cl)c(Cl)c4)c3=O)CCC(CCc3ccccc3)N2C1` (stereo not given in full) the value was less than 1 µM. The molecule `N#CC[C@H](C(=O)NCc1ccc(Cl)c(Cl)n1)N1CCC(CCc2ccccc2)N2C[C@H](N)C[C@H]2C1=O` (stereo not given in full) registered an IC50 of less than 1 µM. For `N[C@@H]1C[C@H]2C(=O)N([C@H](CCC(=O)O)C(=O)NCc3cc(Cl)c(Cl)cn3)CCC(CCc3ccccc3)N2C1` (stereo not given in full) the value was less than 1 µM; for `CCOC(=O)CC[C@H](C(=O)NCc1ccc(Cl)c(Cl)c1OC)N1CCC(CCc2ccccc2)N2C[C@H](N)C[C@H]2C1=O` (stereo not given in full), less than 1 µM. The value for `N#CC[C@H](C(=O)NCc1ccc(Cl)cn1)N1CCC(CCc2ccccc2)N2C[C@H](N)C[C@H]2C1=O` (stereo not given in full) was less than 1 µM; that for `Cn1c(Cl)ccc(CNC(=O)[C@@H](CCC(=O)O)N2CCC(CCc3ccccc3)N3C[C@H](N)C[C@H]3C2=O)c1=O` (stereo not given in full) was less than 1 µM; that for `CCOC(=O)N[C@@H]1C[C@H]2C(=O)N([C@H](CCC(=O)O)C(=O)NCc3ccc(Cl)c(Cl)c3)CCC(CCc3ccccc3)N2C1` (stereo not given in full) was “in the range around 10 µM”. The value for `CCOC(=O)CC[C@H](C(=O)NCc1cc(Cl)c(Cl)cc1OC)N1CCC(CCc2ccccc2)N2C[C@H](N)C[C@H]2C1=O` (stereo not given in full) was less than 1 µM. For the molecule `CC(C)C[C@H](C(=O)NCc1ccc(Cl)c(Cl)c1)N1CCC(C[S+]([O-])c2ccccc2)N2C[C@H](N)C[C@H]2C1=O` (stereo not given in full), the IC50 was less than 1 µM. The value for `CC(C)C[C@H](C(=O)NCc1ccc(Cl)c(F)c1)N1CCC(CCc2ccccc2)N2C[C@H](N)C[C@H]2C1=O` (stereo not given in full) was less than 1 µM; that for `N[C@@H]1C[C@H]2C(=O)N([C@H](CCC(=O)NO)C(=O)NCc3ccc(Cl)c(Cl)c3)CCC(COc3ccc(F)cc3)N2C1` (stereo not given in full) was less than 1 µM. For `CC(C)C[C@H](C(=O)NCc1ccc(Cl)c(C(F)(F)F)c1)N1CCC(CCc2ccccc2)N2C[C@H](N)C[C@H]2C1=O` (stereo not given in full) the value was less than 1 µM. The value for `N[C@@H]1C[C@H]2C(=O)N([C@H](CCC(=O)O)C(=O)NCc3ccc(Cl)cn3)CCC(CCc3ccccc3)N2C1` (stereo not given in full) was less than 1 µM; that for `N#CC[C@H](C(=O)N1CCOC[C@H]1c1ccccc1)N1CCC(CCc2ccccc2)N2C[C@H](N)C[C@H]2C1=O` (stereo not given in full) was “in the range around 1 µM”.

As usually defined, the IC50 is the concentration at which inhibition is half-maximal. The low end stands for greater potency, the high end for weaker potency.

Values taken from ChEMBL document CHEMBL5050834, “Cyclic trex1 inhibitors” (2021).
